Source: US20070117180A1, “Enzyme producing plasma protein fragment having inhibitory activity to metastasis and growth of cancer and plasma protein fragment produced by fragmentation by said enzyme” (priority 1998, published 2007)

Tests used:
plasmin = test: Remaining plasmin activity after cleavage by PACE4 (FIG. 8); type: biochemical; conditions: with passage of time of cleavage by PACE4
Description: Moreover, the enzyme of the present invention, producing angiostatin that comprises Kringles 1 to 4, also cleaves plasmin in the vicinity of its active center (between the 699th Phe and 700th Ala) to let plasmin be inactivated. This cleaving property of the enzyme is quite significant in view of efficient protection against cancer development. This is because angiostatin that inhibits growth of cancer is produced by fragmentation of plasminogen while the simultaneously produced active center of plasmin (plasmin serine protease domain) possibly further promotes cancer development. In addition, it is possible that vascularization and cancer invasion accelerated by the plasmin activity is further accelerated by removal of the Kringle domains. This is because such removal of the Kringle domains would attenuate the inhibitory activity of plasmin-inhibitory proteins occurring within the living body, including alpha 2 plasmin inhibitor (hereinafter referred to as “α2-PI”). Plasmin present in plasma is immediately inactivated by α2-PI circulating in the blood stream wherein the Kringle domains serve as a binding site between plasmin and α2-PI. Deprivation of the domains much reduces the activity of […]. […]

Lewis lung cancer cells = test: Inhibitory activity of PACE4 to growth of metastasized cancerous focus in immunodeficient mice (lung weight, FIG. 9); type: in vivo, immunodeficient (Scid) mice
Description: As a system for estimating inhibitory effects to growth of metastasized cancerous focus of PACE4 per se, immunodeficient (Scid) mice were employed. Lung cancer cells (3LL; provided from Cell Resource Center for Biomedical Research, Institute of Development, Aging and Cancer, Tohoku University) were subcutaneously transplanted to Scid mice at the back. The animals were bred until a primary cancerous focus grows up to a predetermined size. So that severity of disease conditions is taken into consideration, mice were divided into two groups based on the size of a primary cancerous focus; one with a primary cancerous focus weighing not more than 1200 mg and the other with a primary cancerous focus weighing more than 1200 mg. The primary cancerous focus in each group was removed surgically. Each group was then further divided into three groups: a group receiving a high or low concentration of PACE4, and a control group. The sample was administered to mice intraperitoneally at 40 μg/mouse/day or 8 μg/mouse/day for 10 days. As a control, the same amount of physiological saline, as used for dissolving the lyophilized sample, was administered to mice.
After completion of test, mice were dissected and the lung was weighed and compared with the control group (Mann Whetney U test).
To immunodeficient mice of 6 weeks old were transplanted subcutaneously 10^6 Lewis lung cancer cells (LL/2) at the back. The animals were bred for 14 to 17 days and cancer (primary cancerous focus) formed at the back was surgically removed. Based on size of the primary cancerous focus formed, the animals were divided into two groups: one with the primary cancerous focus of not more than 1200 mg (200 mg to 1200 mg) and the other of more than 1200 mg (1201 mg to 2500 mg). Each of these two groups was further divided into three groups: ones that received a high or low dose of the enzyme of the present invention (PACE4) and control. […]

plasminogen = test: Fragmentation of plasminogen by purified PACE4 at pH 7.0 or pH 4.0 (FIG. 6); type: biochemical, human; conditions: reacted at neutral and acidic ranges of pH
Description: FIG. 6 depicts fragmentation patterns of plasminogen when reacted at neutral and acidic ranges of pH. […] In FIG. 6, the arrow A (→A) indicates a band corresponding to angiostatin from PC-3 according to Gately et al. whereas the arrow B (→B) indicates a band corresponding to a fragment comprising Kringles 1 to 4 produced by PACE4. […] The N-terminal amino acid residue of each fragment was analyzed to be F-74 for A, P-452 for B and A-700 for C, respectively.

[1] = tested on: bovine aorta endothelial (BAE) cells; test: Test for inhibitory activity to growth of vascular endothelial cells, bovine aorta endothelial cells; type: cell-based; design: dose or concentration left out as unconfirmed; conditions: cell count after 72 hours; plasminogen fragments
Description: The activity of the plasminogen fragments was also estimated as described by O'Reilly et al. using bovine aorta endothelial (BAE) cells purchased from Sanko Jun-yaku K.K. BAE cells were cultured for maintenance on a 24-well plate (manufactured by Iwaki Glass K.K.) coated with gelatin in a DMEM basal medium containing 10% fetal calf serum (FCS), 3 ng/ml basic FGF (bFGF), 1% glutamine, 1% penicillin and 1% streptomycin at 5% CO2. BAE cells were plated on a 24-well gelatin-coated plate at 12,500 cells/well and cultured on the basal medium deprived of bFGF for 24 hours. […] contained 5% FCS but was deprived of bFGF and the plasminogen fragments were reacted with the cells at 37° C. for 20 minutes. A physiological saline was used as a negative control whereas angiostatin (Angiostatin, manufactured by Technoclone) was used as a positive control. After reaction, the basal medium containing 5% FCS and 2 ng/ml bFGF was added and the cells were cultured at 37° C. for additional 72 hours. The cells were peeled off the well with trypsin/EDTA solution and counted with Coulter counter (manufactured by Coulter).

[2] = tested on: vascular endothelial cells; test: Inhibitory activity to growth of the vascular endothelial cells of plasma protein fragments produced by PACE4; type: cell-based; conditions: as described in Example 13
Description: (§1) The present inventors focused on fibronectin, a plasma component that is produced in great deal under cancerous conditions and is deeply involved in cell adhesion, and cleaved this with the enzyme of the present invention. […] The degraded products produced by the enzyme from fibronectin were separated with heparin Sepharose (Pharmacia). […] The obtained degraded products were estimated for their inhibitory activity to vascularization in the vascular endothelial cell system as described above.
Moreover, the present inventors also cleaved several kinds of fractions obtained from alcoholic fractionation of plasma proteins with the enzyme of the present invention. Alcohol was removed from alcoholic fractions by dialysis, followed by dialysis with citric phosphate buffer (pH 4.0). The resulting fractions were mixed with the enzyme at a ratio of the protein to the enzyme, 100:1, and the mixture was reacted at 38° C. overnight. […]
A test for inhibitory activity to growth of vascular endothelial cells was performed as described by Gately et al. using Human Umbilical vein endothelial (HUV) cells (HUVEC; Sanko Jun-yaku K.K.). […] The cells were peeled off the well with trypsin/EDTA solution and counted with Coulter counter (manufactured by Coulter). […]

[3] = tested on: BCE (Bovine capillary endothelial); test: Inhibition of BCE vascular growth by fibronectin degraded products; type: cell-based
Description: as §1

PACE4: about 45 kDa aspartic enzyme purified from PC-3 culture supernatant, N-terminus LVRIPLHKFT, high homology to human cathepsin D precursor
remaining plasmin activity (plasmin): plasmin activity disappears
inhibitory activity to growth of metastasized cancerous focus (lung weight) (Lewis lung cancer cells; primary cancerous focus more than 1200 mg (B), 40 or 8 μg/mouse/day i.p. for 10 days, 3LL cells): exhibited inhibitory activity to growth of metastasized cancerous focus in a concentration dependent manner
inhibitory activity to increase in lung weight (Lewis lung cancer cells; primary cancerous focus more than 1200 mg, 10 or 2 μg/animal i.p. for 10 days, LL/2 cells): observed in a dose dependent manner
lung weight, PACE4 administration versus control (Lewis lung cancer cells; primary cancerous focus not more than 1200 mg, 10 or 2 μg/animal i.p. for 10 days, LL/2 cells): no significant difference
pH range at which plasminogen is fragmented (plasminogen): only at an acidic range of pH

angiostatin [reference compound]
inhibitory activity to growth of the vascular endothelial cells [1]: exhibited the inhibitory activity

fibronectin
growth of the vascular endothelial cells (FIG. 15) [2]: no such inhibitory activity
inhibitory ability to BCE vascular growth [3]: not found
